Measured values reported in patent US20220324835A1 (Nurix Therapeutics, Inc., priority 2018, published 2022).

What was measured:
[1] = biological target: T1, Cbl-b (Homo sapiens, UniProt Q13191); test: Cbl-b inhibition assay (Cbl-b activity assay, FRET, Biological Example 1; 100 mM NaCl, 60 nM Src kinase); format: biochemical; settings: upper bound stated in text lists; read-out: IC50 values in the Cbl-b inhibition assay of Biological Example 1
Method in brief: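 N-terminally biotinylated Avi-tagged Cbl-b was mixed with Src kinase, UbcH5B covalently conjugated to Bodipy-fluorescein ubiquitin, and streptavidin-terbium. Src phosphorylation lets Cbl-b bind UbcH5B-Ub, giving terbium-fluorescein FRET; inhibition is read as loss of FRET signal.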

[2] = biological target: T1, Cbl-b; test: Cbl-b activity assay (Cbl-b inhibition assay), TR-FRET of Cbl-b interaction with UbcH5B-Ub; format: biochemical
Method in brief: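 UbcH5B (C85K) conjugated to N-terminally Bodipy-Fluorescein-labeled ubiquitin served as the fluorescent partner. After compound preincubation, Src kinase (60 nM) with 1 mM ATP and 5 mM MgCl2 (final) was added for 1.5 h, followed by a further 1 h incubation. Some values were obtained with 50 mM NaCl and 30 nM Src.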

[3] = biological target: Cbl-b (residues 36-427) (Homo sapiens, UniProt Q13191); test: Cbl-b binding assay (SPR, Biacore T200); settings: 20° C., 1:1 binding model
Method in brief: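 Steps: capture protein on NeutrAvidin surface; inject compound dilutions (8 or 10 points from 100 or 50 μM) 50 s; allow 90-180 s dissociation; regenerate 20 s with 0.3 M NaCl. Runs at 20° C in HEPES pH 7.5/100 mM NaCl/2% DMSO; 1:1 fitting.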

[4] = assay buffer with 100 mM NaCl, 60 nM Src kinase, read-out: Cbl-b activity IC50
[5] = * assay buffer containing 50 mM NaCl instead of 100 mM NaCl and 30 nM Src kinase instead of 60 nM, read-out: Cbl-b activity IC50 (μM)*

Chain of Cbl-b (residues 36-427) (Q13191 36-427): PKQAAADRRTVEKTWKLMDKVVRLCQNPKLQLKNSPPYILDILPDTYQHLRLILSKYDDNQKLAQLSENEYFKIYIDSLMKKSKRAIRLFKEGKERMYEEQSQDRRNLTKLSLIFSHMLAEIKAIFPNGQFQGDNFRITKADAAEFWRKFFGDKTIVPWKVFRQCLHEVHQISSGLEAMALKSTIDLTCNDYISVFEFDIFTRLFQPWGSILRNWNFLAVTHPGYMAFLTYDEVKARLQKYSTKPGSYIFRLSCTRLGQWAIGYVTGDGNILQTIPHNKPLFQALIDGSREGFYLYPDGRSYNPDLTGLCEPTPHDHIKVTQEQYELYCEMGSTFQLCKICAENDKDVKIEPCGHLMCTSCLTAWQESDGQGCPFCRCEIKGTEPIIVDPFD
T1 sequence (Q13191 36-427): as above

C[C@H](Sc1nncn1C)c1ccnc(NC(=O)c2cccc(OC(F)(F)F)n2)c1 [Compound 122, (S)-N-(4-(1-((4-methyl-4H-1,2,4-triazol-3-yl)thio)ethyl)pyridin-2-yl)-6-(trifluoromethoxy)picolinamide]
IC50 [1]: ≤ 10 µM
IC50 [2, 4]: 1 to 3 µM
Kd [3]: 1 to 3 µM

CCc1cccc(C(=O)Nc2cc([C@H](C)Sc3nncn3C)ccn2)n1 [Compound 123, (S)-6-ethyl-N-(4-(1-((4-methyl-4H-1,2,4-triazol-3-yl)thio)ethyl)pyridin-2-yl)picolinamide]
IC50 [1]: ≤ 10 µM
IC50 [2, 4]: 1 to 3 µM
Kd [3]: 3 to 10 µM

C[C@H](Sc1nncn1C)c1ccnc(NC(=O)c2cccc(Cl)n2)c1 [Compound 124, 6-chloro-N-[4-[(LV)-1-[(4-methyl-1,2,4-triazol-3-yl)sulfanyl]ethyl]-2-pyridyl]pyridine-2-carboxamide]
IC50 [1]: ≤ 10 µM
IC50 [2, 4]: 1 to 3 µM
Kd [3]: 3 to 10 µM

COc1nc(C(=O)Nc2cc([C@H](C)Sc3nncn3C)ccn2)ccc1Cl [Compound 125, (S)-5-chloro-6-methoxy-N-(4-(1-((4-methyl-4H-1,2,4-triazol-3-yl)thio)ethyl)pyridin-2-yl)picolinamide]
IC50 [1]: ≤ 10 µM
IC50 [2, 4]: 1 to 3 µM
Kd [3]: 3 to 10 µM

C[C@H](Sc1nncn1C)c1ccnc(NC(=O)c2cc(N3CC[C@H](O)C3)cc(C(F)(F)F)n2)c1 [Compound 126, 4-[(3S)-3-hydroxypyrrolidin-1-yl]-N-[4-[(1S)-1-[(4-methyl-1,2,4-triazol-3-yl)sulfanyl]ethyl]-2-pyridyl]-6-(trifluoromethyl)pyridine-2-carboxamide]
IC50 [1]: ≤ 10 µM
IC50 [2, 4]: 1 to 3 µM
Kd [3]: 3 to 10 µM

C=CCC(Sc1nncn1C)c1cccc(NC(=O)c2ccc3ccccc3n2)c1 (centres unmarked) [Compound 134, N-[3-[1-[(4-methyl-1,2,4-triazol-3-yl)sulfanyl]but-3-enyl]phenyl]quinoline-2-carboxamide]
IC50 [1]: ≤ 10 µM
IC50 [2, 5]: 1 to 3 µM
IC50 [2, 4]: 1 to 3 µM
Kd [3]: > 10 µM

C=CCC(Sc1nncn1C)c1cccc(NC(=O)c2cc3ccccc3cn2)c1 (centres unmarked) [Compound 135, N-[3-[1-[(4-methyl-1,2,4-triazol-3-yl)sulfanyl]but-3-enyl]phenyl]isoquinoline-3-carboxamide]
IC50 [1]: ≤ 10 µM
IC50 [2, 5]: 3 to 10 µM
IC50 [2, 4]: 1 to 3 µM
Kd [3]: > 10 µM

C[C@H](Sc1nncn1C)c1cccc(NC(=O)c2cc(C(=O)N3CCCC3)ccn2)c1 [Compound 138, (S)-N-(3-(1-((4-methyl-4H-1,2,4-triazol-3-yl)thio)ethyl)phenyl)-4-(pyrrolidine-1-carbonyl)picolinamide]
IC50 [1]: ≤ 10 µM
IC50 [2, 4]: 3 to 10 µM
Kd [3]: > 10 µM

C[C@H](Sc1nncn1C)c1cccc(NC(=O)c2cc(C(=O)N3CC[C@@H](O)C3)ccn2)c1 [Compound 139, 4-((R)-3-hydroxypyrrolidine-1-carbonyl)-N-(3-((S)-1-((4-methyl-4H-1,2,4-triazol-3-yl)thio)ethyl)phenyl)picolinamide]
IC50 [1]: ≤ 10 µM
IC50 [2, 4]: 3 to 10 µM
Kd [3]: 3 to 10 µM

CO[C@@H]1CCN(C(=O)c2ccnc(C(=O)Nc3cccc([C@H](C)Sc4nncn4C)c3)c2)C1 [Compound 141, 4-((R)-3-methoxypyrrolidine-1-carbonyl)-N-(3-((S)-1-((4-methyl-4H-1,2,4-triazol-3-yl)thio)ethyl)phenyl)picolinamide]
IC50 [1]: ≤ 10 µM
IC50 [2, 4]: 3 to 10 µM
Kd [3]: 3 to 10 µM

C[C@H](Sc1nncn1C)c1cccc(NC(=O)c2cc(C(=O)N3CCC3)ccn2)c1 [Compound 143, (S)-4-(azetidine-1-carbonyl)-N-(3-(1-((4-methyl-4H-1,2,4-triazol-3-yl)thio)ethyl)phenyl)picolinamide]
IC50 [1]: ≤ 10 µM
IC50 [2, 4]: 3 to 10 µM
Kd [3]: 3 to 10 µM

C[C@H](Sc1nncn1C)c1cccc(NC(=O)c2cc(C(=O)N3CCCCC3)ccn2)c1 [Compound 144, (S)-N-(3-(1-((4-methyl-4H-1,2,4-triazol-3-yl)thio)ethyl)phenyl)-4-(piperidine-1-carbonyl)picolinamide]
IC50 [1]: ≤ 10 µM
IC50 [2, 4]: 3 to 10 µM
Kd [3]: 3 to 10 µM
